# Data: patent US11524932B2, “Lipids for use in lipid nanoparticle formulations” (ACUITAS THERAPEUTICS, INC., priority 2017, dated 2022)
# Experiments:
# [1] = system: luciferase expression in the liver; assay: Luciferase mRNA in vivo evaluation using lipid nanoparticle compositions (liver luciferase expression); set-up: species or system mice; conditions: LNP with FLuc mRNA, tail vein injection, liver measured 4 hours after administration; for Liver Luc @ 0.5 mg/kg (ng luc/g liver): 0.5 mg mRNA/kg
# Method: A lipid of structure (I), DSPC, cholesterol and PEG-lipid were solubilized in ethanol at a molar ratio of 50:10:38.5:1.5 or 47.5:10:40.8:1.7. Lipid nanoparticles (LNP) were prepared at a total lipid to mRNA weight ratio of approximately 10:1 to 30:1. Briefly, the mRNA was diluted to 0.2 mg/mL in 10 to 50 mM citrate buffer, pH 4. Syringe pumps were used to mix the ethanolic lipid solution with the mRNA aqueous solution at a ratio of about 1:5 to 1:3 (vol/vol) with total flow rates above 15 mL/min. The ethanol was then removed and the external buffer replaced with PBS by dialysis. Finally, the lipid nanoparticles were filtered through a 0.2 μm pore sterile filter.
# Studies were performed in 6-8 week old female C57BL/6 mice (Charles River) 8-10 week old CD-1 (Harlan) mice (Charles River) according to guidelines established by an institutional animal care committee (ACC) and the Canadian Council on Animal Care (CCAC). Varying doses of mRNA-lipid nanoparticle were systemically administered by tail vein injection and animals euthanized at a specific time point (e.g., 4 hours) post-administration. Liver and spleen were collected in pre-weighed tubes, weights determined, immediately snap frozen in liquid nitrogen and stored at −80° C. until processing for analysis.
# For liver, approximately 50 mg was dissected for analyses in a 2 mL FastPrep tubes (MP Biomedicals, Solon Ohio). ¼″ ceramic sphere (MP Biomedicals) was added to each tube and 500 μL of Glo Lysis Buffer—GLB (Promega, Madison Wis.) equilibrated to room temperature was added to liver tissue. Liver tissues were homogenized with the FastPrep24 instrument (MP Biomedicals) at 2×6.0 m/s for 15 seconds. Homogenate was incubated at room temperature for 5 minutes prior to a 1:4 dilution in GLB and assessed using SteadyGlo Luciferase assay system (Promega). Specifically, 50 μL of diluted tissue homogenate was reacted with 50 μL of SteadyGlo substrate, shaken for 10 seconds followed by 5 minute incubation and then quantitated using a CentroXS^3 LB 960 luminometer (Berthold Technologies, Germany). The amount of protein assayed was determined by using the BCA protein assay kit (Pierce, Rockford, Ill.). Relative luminescence units (RLU) were then normalized to total μg protein assayed. To convert RLU to ng luciferase a standard curve was generated with QuantiLum Recombinant Luciferase (Promega). […]
# Compounds of structure (I) were formulated using the following molar ratio: 47.5% cationic lipid/10% distearoylphosphatidylcholine (DSPC)/40.8% Cholesterol/1.7% PEG lipid (“PEG-DMA” 2-[2-(ω-methoxy (polyethyleneglycol2000)ethoxy]-N,N-ditetradecylacetamide). Relative activity was determined by measuring luciferase expression in the liver 4 hours following administration via tail vein injection as described in Example 1. […]
# [2] = Determination of pKa of formulated lipids (TNS fluorescence assay in lipid nanoparticles); assay type: physicochemical; conditions: lipid formulated in LNP (lipid/DSPC/cholesterol/PEG-lipid); pH giving half-maximal TNS fluorescence
# Text: As described elsewhere, the pKa of formulated lipids is correlated with the effectiveness of LNPs for delivery of nucleic acids (see Jayaraman et al, Angewandte Chemie, International Edition (2012), 51(34), 8529-8533; Semple et al, Nature Biotechnology 28, 172-176 (2010)). In some embodiments, the preferred range of pKa is ˜5 to ˜7. […] Lipid nanoparticles comprising compound of structure (I)/DSPC/cholesterol/PEG-lipid (50/10/38.5/1.5 or 47.5:10:40.8:1.7 mol %) in PBS at a concentration of 0.4 mM total lipid were prepared using the in-line process as described in Example 1. TNS was prepared as a 100 μM stock solution in distilled water. Vesicles were diluted to 24 μM lipid in 2 mL of buffered solutions containing 10 mM HEPES, 10 mM MES, 10 mM ammonium acetate, and 130 mM NaCl, where the pH ranged from 2.5 to 11. An aliquot of the TNS solution was added to give a final concentration of 1 μM and following vortex mixing fluorescence intensity was measured at room temperature in a SLM Aminco Series 2 Luminescence Spectrophotometer using excitation and emission wavelengths of 321 nm and 445 nm. A sigmoidal best fit analysis was applied to the fluorescence data and the pKa was measured as the pH giving rise to half-maximal fluorescence intensity.
smiles,measurement,setting,value
CCCCCCCCC(CCCCCC)COC(=O)CCCCCN(CCCCCC(=O)OCC(CCCCCC)CCCCCCCC)CCNCCCCCC(=O)OCC(CCCC)CCCCCC (centres unmarked) [Compound 1],"Liver Luc (ng luc/g liver), dosed at 0.3 mg/kg",[1]; footnote *: dosed at 0.3 mg/kg,1235 ± 345* ng luc/g liver
same,pKa,[2],6.39
CCCCCCCCC(CCCCCC)COC(=O)CCCCCC(CCCCCC(=O)OCC(CCCCCC)CCCCCCCC)NCCCCCC(=O)OCC(CCCC)CCCCCC (centres unmarked) [Compound 2],Liver Luc @ 0.5 mg/kg (ng luc/g liver),[1],29 ± 4 ng luc/g liver
same,pKa,[2],5.76
CCCCCCCCC(CCCCCC)COC(=O)CCCCCNCCN(CCCCCC(=O)OCC(CCCCCC)CCCCCCCC)CCCCCC(=O)OCC(CCCCCC)CCCCCCCC (centres unmarked) [Compound 3],Liver Luc @ 0.5 mg/kg (ng luc/g liver),[1],33 ± 1 ng luc/g liver
same,pKa,[2],6.5
CCCCCCCCC(CCCCCC)COC(=O)CCCCCC(CCCCCC(=O)OCC(CCCCCC)CCCCCCCC)NCCCCCC(=O)OCC(CC)CCCC (centres unmarked) [Compound 4],Liver Luc @ 0.5 mg/kg (ng luc/g liver),[1],102 ± 42 ng luc/g liver
same,pKa,[2],6.11
